Laboratory results taken from PubChem BioAssay (NCI).
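Test compounds were applied to cells in 96-well plates for 48 hours at 5 doses. At the GI50, growth is halved. TGI: total growth inhibition.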

Legend:
Experiment in all cases: NCI-60 cell line screen, 48 h
[1] = tested on: EKVX NSCLC
[2] = tested on: HOP-62 NSCLC
[3] = tested on: SK-OV-3 ovarian
[4] = tested on: RPMI-8226 leukemia
[5] = tested on: OVCAR-3 ovarian
[6] = tested on: SW-620 colon
[7] = tested on: RXF 393 renal
[8] = tested on: SF-268 CNS
[9] = tested on: K-562 leukemia
[10] = tested on: NCI/ADR-RES ovarian
[11] = tested on: COLO 205 colon
[12] = tested on: BT-549 breast
[13] = tested on: M14 melanoma
[14] = tested on: NCI-H522 lung
[15] = tested on: SK-MEL-2 melanoma
[16] = tested on: SK-MEL-5 melanoma
[17] = tested on: HCT-116 colon
[18] = tested on: UACC-257 melanoma
[19] = tested on: HCC-2998 colon
[20] = tested on: SNB-75 CNS
[21] = tested on: MALME-3M melanoma
[22] = tested on: NCI-H226 lung
[23] = tested on: NCI-H23 lung
[24] = tested on: UACC-62 melanoma
[25] = tested on: MCF7 breast
[26] = tested on: IGROV1 ovarian
[27] = tested on: UO-31 renal
[28] = tested on: NCI-H460 lung
[29] = tested on: A498 renal
[30] = tested on: HT29 colon
[31] = tested on: MOLT-4 leukemia
[32] = tested on: TK-10 renal
[33] = tested on: A549 NSCLC
[34] = tested on: HOP-92 NSCLC
[35] = tested on: OVCAR-4 ovarian
[36] = tested on: OVCAR-5 ovarian
[37] = tested on: HS 578T breast
[38] = tested on: OVCAR-8 ovarian
[39] = tested on: MDA-MB-435
[40] = tested on: SF-539 CNS
[41] = tested on: U251 CNS
[42] = tested on: DU-145 prostate
[43] = tested on: HCT-15 colon
[44] = tested on: SR leukemia
[45] = tested on: LOX IMVI melanoma
[46] = tested on: PC-3 prostate
[47] = tested on: HL-60(TB) leukemia
[48] = tested on: MDA-MB-231 breast
[49] = tested on: SK-MEL-28 melanoma
[50] = tested on: SN12C renal
[51] = tested on: 786-0 renal
[52] = tested on: CCRF-CEM leukemia
[53] = tested on: SNB-19 CNS
[54] = tested on: KM12 colon
[55] = tested on: SF-295 CNS
[56] = tested on: CAKI-1 renal
[57] = tested on: ACHN renal

SMILES: COC1=CC(c2ccc[nH]2)=N/C1=C\c1[nH]c(C)c(C(=O)CCCCC(=O)NC(C)(C)C)c1C
- GI50 [1]: 1.96 µM
- TGI [1]: 13 µM
- GI50 [2]: 1.74 µM
- TGI [2]: 5.02 µM
- GI50 [3]: 9.31 µM
- TGI [3]: 25.5 µM
- GI50 [4]: 0.237 µM
- TGI [4]: 1.64 µM
- GI50 [5]: 1.22 µM
- TGI [5]: 2.73 µM
- GI50 [6]: 0.947 µM
- TGI [6]: 2.26 µM
- GI50 [7]: 1.66 µM
- TGI [7]: 3.6 µM
- GI50 [8]: 1.6 µM
- TGI [8]: 4.32 µM
- GI50 [9]: 1.94 µM
- GI50 [10]: 1.61 µM
- TGI [10]: 3.21 µM
- GI50 [11]: 1.22 µM
- TGI [11]: 2.46 µM
- GI50 [12]: 1.41 µM
- TGI [12]: 4.5 µM
- GI50 [13]: 1.62 µM
- TGI [13]: 3.1 µM
- GI50 [14]: 2.09 µM
- TGI [14]: 6.73 µM
- GI50 [15]: 17.7 µM
- TGI [15]: 42.5 µM
- GI50 [16]: 1.97 µM
- TGI [16]: 5.24 µM
- GI50 [17]: 1.2 µM
- TGI [17]: 2.43 µM
- GI50 [18]: 16 µM
- TGI [18]: 35.8 µM
- GI50 [19]: 1.88 µM
- TGI [19]: 6.09 µM
- GI50 [20]: 2.79 µM
- TGI [20]: 9 µM
- GI50 [21]: 1.47 µM
- TGI [21]: 3.12 µM
- GI50 [22]: 2.97 µM
- TGI [22]: 15 µM
- GI50 [23]: 1.57 µM
- TGI [23]: 4.46 µM
- GI50 [24]: 3.59 µM
- TGI [24]: 10.8 µM
- GI50 [25]: 1.5 µM
- TGI [25]: 2.92 µM
- GI50 [26]: 2.1 µM
- TGI [26]: 4.59 µM
- GI50 [27]: 1.95 µM
- TGI [27]: 6.27 µM
- GI50 [28]: 1.87 µM
- TGI [28]: 4.52 µM
- GI50 [29]: 2.93 µM
- TGI [29]: 10.8 µM
- GI50 [30]: 0.552 µM
- TGI [30]: 3.11 µM
- GI50 [31]: 0.854 µM
- TGI [31]: 4.29 µM
- GI50 [32]: 1.39 µM
- TGI [32]: 3.41 µM
- GI50 [33]: 3.34 µM
- TGI [33]: 21.7 µM
- GI50 [34]: 1.54 µM
- TGI [34]: 4.97 µM
- GI50 [35]: 1.78 µM
- TGI [35]: 6.29 µM
- GI50 [36]: 1.89 µM
- TGI [36]: 8.73 µM
- GI50 [37]: 1.75 µM
- TGI [37]: 4.26 µM
- GI50 [38]: 2.25 µM
- TGI [38]: 5.45 µM
- GI50 [39]: 1.75 µM
- TGI [39]: 3.47 µM
- GI50 [40]: 3.27 µM
- TGI [40]: 9.94 µM
- GI50 [41]: 1.29 µM
- TGI [41]: 2.57 µM
- GI50 [42]: 1.69 µM
- TGI [42]: 3.79 µM
- GI50 [43]: 0.683 µM
- TGI [43]: 2.06 µM
- GI50 [44]: 0.395 µM
- TGI [44]: 2.35 µM
- GI50 [45]: 1.15 µM
- TGI [45]: 2.42 µM
- GI50 [46]: 1.21 µM
- TGI [46]: 2.57 µM
- GI50 [47]: 1.91 µM
- TGI [47]: 4.06 µM
- GI50 [48]: 0.957 µM
- TGI [48]: 3.95 µM
- GI50 [49]: 1.59 µM
- TGI [49]: 3.2 µM
- GI50 [50]: 2.19 µM
- TGI [50]: 7.32 µM
- GI50 [51]: 1.7 µM
- TGI [51]: 3.36 µM
- GI50 [52]: 0.526 µM
- GI50 [53]: 3.01 µM
- TGI [53]: 18.7 µM
- GI50 [54]: 1.16 µM
- TGI [54]: 2.38 µM
- GI50 [55]: 2.17 µM
- TGI [55]: 6.66 µM
- GI50 [56]: 1.39 µM
- TGI [56]: 4.43 µM
- GI50 [57]: 1.7 µM
- TGI [57]: 3.7 µM

SMILES: COCCCC(NC(=O)C(CC(C)C)NC(=O)OCc1ccc(OC)cc1)C(N)=O (stereo not given)
- GI50 [35]: 47.2 µg/mL

SMILES: C=CC1CN2CCC1CC2C(O)c1ccnc2ccc(OC)cc12 (stereo not given)
- GI50 [4]: 53 µM
- TGI [4]: > 100 µM
- GI50 [21]: > 100 µM
- TGI [21]: > 100 µM
- GI50 [23]: > 100 µM
- TGI [23]: > 100 µM
- GI50 [29]: > 100 µM
- TGI [29]: > 100 µM

SMILES: CCCc1cc(=O)[nH]c(-n2nc(C)cc2C)n1
- GI50 [2]: 5.58 µM
- TGI [2]: > 100 µM
- GI50 [3]: 9.34 µM
- TGI [3]: > 100 µM
- GI50 [4]: 5.16 µM
- TGI [4]: 28.4 µM
- GI50 [5]: 7.43 µM
- TGI [5]: > 100 µM
- GI50 [6]: 3.93 µM
- TGI [6]: > 100 µM
- GI50 [7]: 18.6 µM
- TGI [7]: > 100 µM
- GI50 [8]: 3.19 µM
- TGI [8]: > 100 µM
- GI50 [9]: 3.4 µM
- TGI [9]: > 100 µM
- GI50 [10]: 2.73 µM
- TGI [10]: > 100 µM
- GI50 [11]: 8.45 µM
- TGI [11]: > 100 µM
- GI50 [12]: 6.86 µM
- TGI [12]: > 100 µM
- GI50 [13]: 2.91 µM
- TGI [13]: > 100 µM
- GI50 [14]: 4.98 µM
- TGI [14]: 30.7 µM
- GI50 [15]: 13 µM
- TGI [15]: 63 µM
- GI50 [16]: 3.18 µM
- TGI [16]: 47.6 µM
- GI50 [17]: 3.3 µM
- TGI [17]: 67.3 µM
- GI50 [18]: 6.23 µM
- TGI [18]: 40 µM
- GI50 [19]: 14.3 µM
- TGI [19]: > 100 µM
- GI50 [20]: 40.3 µM
- TGI [20]: > 100 µM
- GI50 [22]: 5.99 µM
- TGI [22]: 55.6 µM
- GI50 [24]: 2.31 µM
- TGI [24]: 35.7 µM
- GI50 [25]: 4.31 µM
- TGI [25]: > 100 µM
- GI50 [26]: 2.31 µM
- TGI [26]: > 100 µM
- GI50 [27]: 2.4 µM
- TGI [27]: > 100 µM
- GI50 [28]: 1.26 µM
- TGI [28]: > 100 µM
- GI50 [29]: 11.7 µM
- TGI [29]: > 100 µM
- GI50 [30]: 6.68 µM
- TGI [30]: 38.5 µM
- GI50 [31]: 3.44 µM
- TGI [31]: > 100 µM
- GI50 [33]: 2.71 µM
- TGI [33]: > 100 µM
- GI50 [35]: 4.68 µM
- TGI [35]: > 100 µM
- GI50 [36]: 28 µM
- TGI [36]: > 100 µM
- GI50 [37]: 15 µM
- TGI [37]: > 100 µM
- GI50 [38]: 2.41 µM
- TGI [38]: > 100 µM
- GI50 [39]: 4.67 µM
- TGI [39]: 32.4 µM
- GI50 [40]: 2.99 µM
- TGI [40]: > 100 µM
- GI50 [41]: 1.71 µM
- TGI [41]: > 100 µM
- GI50 [42]: 7.66 µM
- TGI [42]: > 100 µM
- GI50 [43]: 1.75 µM
- TGI [43]: > 100 µM
- GI50 [44]: 3.46 µM
- TGI [44]: > 100 µM
- GI50 [45]: 2.81 µM
- TGI [45]: > 100 µM
- GI50 [46]: 4.29 µM
- TGI [46]: > 100 µM
- GI50 [47]: 2.04 µM
- TGI [47]: 20.7 µM
- GI50 [48]: 4.47 µM
- TGI [48]: > 100 µM
- GI50 [49]: 3.8 µM
- TGI [49]: 40.4 µM
- GI50 [50]: 4.75 µM
- TGI [50]: > 100 µM
- GI50 [51]: 7.62 µM
- TGI [51]: > 100 µM
- GI50 [52]: 1.59 µM
- TGI [52]: 26.5 µM
- GI50 [53]: 4.5 µM
- TGI [53]: > 100 µM
- GI50 [54]: 5.25 µM
- TGI [54]: > 100 µM
- GI50 [55]: 1.07 µM
- TGI [55]: 8.81 µM
- GI50 [56]: 2.47 µM
- TGI [56]: 26.3 µM
- GI50 [57]: 3.97 µM
- TGI [57]: > 100 µM

SMILES: C=CCN(CC=C)C(=O)[C@H](CC)[C@@H]1CC[C@@H](C)[C@@H]([C@H](C)[C@@H](O)[C@@H](C)C(=O)[C@H](CC)C2O[C@]3(C=CC(=O)[C@]4(CC[C@@](C)([C@H]5CC[C@](O)(CC)[C@H](C)O5)O4)O3)[C@H](C)C[C@@H]2C)O1 (stereo not given in full)
- GI50 [9]: 2.31 µM
- TGI [9]: > 100 µM
- GI50 [17]: 2.76 µM
- TGI [17]: > 100 µM
- GI50 [46]: 2.02 µM
- TGI [46]: > 100 µM
- GI50 [52]: 2.65 µM
- TGI [52]: > 100 µM
- GI50 [56]: 1.96 µM
- TGI [56]: > 100 µM
